Data published in article PMC5218480 (PLoS ONE, 2017).

Tested on: MV-4-11 cells
Experiment: Gene expression microarray analysis (Affymetrix PrimeView) and GSEA
Assay type: cell-based, human
Design: RFU PODN (11730768_x_at) / Fold change /veh PODN (11730768_x_at) / RFU LINC00158 (11744669_a_at) / Fold change /veh LINC00158 (11744669_a_at) / RFU DUSP10 (11751237_a_at) / Fold change /veh DUSP10 (11751237_a_at) / RFU ID3 (11757404_x_at) / Fold change /veh ID3 (11757404_x_at) / RFU PLEKHG5 (11737974_s_at) / Fold change /veh PLEKHG5 (11737974_s_at) / RFU LRRC4B (11730491_at) / Fold change /veh LRRC4B (11730491_at) / RFU GIMAP4 (11747438_a_at) / Fold change /veh GIMAP4 (11747438_a_at) / RFU KRT8 (11758183_x_at) / Fold change /veh KRT8 (11758183_x_at) / RFU CNN1 (11734310_a_at) / Fold change /veh CNN1 (11734310_a_at) / RFU VPS37D (11726825_at) / Fold change /veh VPS37D (11726825_at) / RFU C10orf10 (11716522_x_at) / Fold change /veh C10orf10 (11716522_x_at) / RFU KIR2DL2 /// KIR2DL4 /// KIR2DL5A /// KIR2DL5B /// KIR2DS1 /// KIR2DS2 /// KIR2DS3 /// KIR2DS4 /// KIR3DL3 /// KIR3DL3 /// KIR3DS1 (11738374_at) / Fold change /veh KIR2DL2 /// KIR2DL4 /// KIR2DL5A /// KIR2DL5B /// KIR2DS1 /// KIR2DS2 /// KIR2DS3 /// KIR2DS4 /// KIR3DL3 /// KIR3DL3 /// KIR3DS1 (11738374_at) / RFU C1QL1 (11718748_at) / Fold change /veh C1QL1 (11718748_at) / RFU TMPRSS4 (11747572_a_at) / Fold change /veh TMPRSS4 (11747572_a_at) / RFU HAMP (11756126_x_at) / Fold change /veh HAMP (11756126_x_at) / RFU RNFT2 (11725882_a_at) / Fold change /veh RNFT2 (11725882_a_at) / RFU NR4A2 (11747474_a_at) / Fold change /veh NR4A2 (11747474_a_at) / RFU ABCC12 (11746883_a_at) / Fold change /veh ABCC12 (11746883_a_at) / RFU TMEM136 (11760407_x_at) / Fold change /veh TMEM136 (11760407_x_at) / RFU CLDN22 /// WWC2 (11732394_at) / Fold change /veh CLDN22 /// WWC2 (11732394_at) / RFU HLA-DPB1 (11760878_x_at) / Fold change /veh HLA-DPB1 (11760878_x_at) / RFU SPINT1 (11716480_a_at) / Fold change /veh SPINT1 (11716480_a_at) / RFU GAP43 (11754022_s_at) / Fold change /veh GAP43 (11754022_s_at) / RFU A4GNT (11735810_at) / Fold change /veh A4GNT (11735810_at) / RFU PRB3 (11715151_x_at) / Fold change /veh PRB3 (11715151_x_at) / RFU TUBB4B (11761932_at) / Fold change /veh TUBB4B (11761932_at) / RFU CAPN14 (11732068_a_at) / Fold change /veh CAPN14 (11732068_a_at) / RFU TMCC2 (11721928_a_at) / Fold change /veh TMCC2 (11721928_a_at) / RFU IRGQ (11745062_a_at) / Fold change /veh IRGQ (11745062_a_at) / RFU FAM174B (11720279_a_at) / Fold change /veh FAM174B (11720279_a_at) / RFU TMPRSS4 (11748680_a_at) / Fold change /veh TMPRSS4 (11748680_a_at) / RFU FAM212B (11763350_a_at) / Fold change /veh FAM212B (11763350_a_at) / RFU PLEKHG5 (11743358_a_at) / Fold change /veh PLEKHG5 (11743358_a_at) / RFU ZSCAN30 (11745921_a_at) / Fold change /veh ZSCAN30 (11745921_a_at) / RFU CMKLR1 (11741424_a_at) / Fold change /veh CMKLR1 (11741424_a_at) / RFU LOC101060620 /// MAPK8IP1 (11723275_at) / Fold change /veh LOC101060620 /// MAPK8IP1 (11723275_at) / RFU SPTSSB (11747773_x_at) / Fold change /veh SPTSSB (11747773_x_at) / RFU PRSS12 (11739890_at) / Fold change /veh PRSS12 (11739890_at) / RFU BIN1 (11741810_x_at) / Fold change /veh BIN1 (11741810_x_at) / RFU WNT11 (11732464_a_at) / Fold change /veh WNT11 (11732464_a_at) / RFU C10orf10 (11716521_a_at) / Fold change /veh C10orf10 (11716521_a_at) / RFU C5orf56 (11738089_at) / Fold change /veh C5orf56 (11738089_at) / RFU CYB561 (11721691_x_at) / Fold change /veh CYB561 (11721691_x_at) / RFU ANKRD19P (11752326_a_at) / Fold change /veh ANKRD19P (11752326_a_at) / RFU OR2T12 /// OR2T33 /// OR2T8 (11738714_s_at) / Fold change /veh OR2T12 /// OR2T33 /// OR2T8 (11738714_s_at) / RFU VCAN (11748164_a_at) / Fold change /veh VCAN (11748164_a_at) / RFU JSRP1 (11732532_at) / Fold change /veh JSRP1 (11732532_at) / RFU KRTAP10-11 (11738290_x_at) / Fold change /veh KRTAP10-11 (11738290_x_at) / RFU MYO3A (11730013_a_at) / Fold change /veh MYO3A (11730013_a_at) / RFU EBF3 (11725865_a_at) / Fold change /veh EBF3 (11725865_a_at) / RFU CAMK2N1 (11719241_x_at) / Fold change /veh CAMK2N1 (11719241_x_at) / RFU C5orf56 (11738088_a_at) / Fold change /veh C5orf56 (11738088_a_at) / RFU OLFML3 (11715873_a_at) / Fold change /veh OLFML3 (11715873_a_at) / RFU LOC100653217 /// NTM (11731650_a_at) / Fold change /veh LOC100653217 /// NTM (11731650_a_at) / RFU MAPK11 (11762145_a_at) / Fold change /veh MAPK11 (11762145_a_at) / RFU FIZ1 (11724087_x_at) / Fold change /veh FIZ1 (11724087_x_at) / RFU OASL (11726364_x_at) / Fold change /veh OASL (11726364_x_at) / RFU SOX15 (11748057_x_at) / Fold change /veh SOX15 (11748057_x_at) / RFU CD79A (11719716_a_at) / Fold change /veh CD79A (11719716_a_at) / RFU HIST1H1D (11736915_at) / Fold change /veh HIST1H1D (11736915_at) / RFU CASKIN2 (11723855_a_at) / Fold change /veh CASKIN2 (11723855_a_at) / RFU LOC730098 (11760151_x_at) / Fold change /veh LOC730098 (11760151_x_at) / RFU OR4N2 (11742367_at) / Fold change /veh OR4N2 (11742367_at) / RFU PRRT2 (11749266_a_at) / Fold change /veh PRRT2 (11749266_a_at) / RFU SNX32 (11753110_a_at) / Fold change /veh SNX32 (11753110_a_at) / RFU CDHR5 (11726645_a_at) / Fold change /veh CDHR5 (11726645_a_at) / RFU RCAN1 (11760418_a_at) / Fold change /veh RCAN1 (11760418_a_at) / RFU FAM167A (11723789_a_at) / Fold change /veh FAM167A (11723789_a_at) / RFU FAM26E (11764081_at) / Fold change /veh FAM26E (11764081_at) / RFU ISYNA1 (11749810_s_at) / Fold change /veh ISYNA1 (11749810_s_at) / RFU ACY1 (11761880_at) / Fold change /veh ACY1 (11761880_at) / RFU 11764098_at / Fold change /veh 11764098_at / RFU SAMD14 (11745864_x_at) / Fold change /veh SAMD14 (11745864_x_at) / RFU NPB (11741838_a_at) / Fold change /veh NPB (11741838_a_at) / RFU TMPRSS6 (11731388_a_at) / Fold change /veh TMPRSS6 (11731388_a_at) / RFU KRTAP10-2 (11738614_at) / Fold change /veh KRTAP10-2 (11738614_at) / RFU ARHGAP8 /// PRR5-ARHGAP8 (11727945_x_at) / Fold change /veh ARHGAP8 /// PRR5-ARHGAP8 (11727945_x_at) / RFU KRTAP5-7 /// NADSYN1 (11734609_at) / Fold change /veh KRTAP5-7 /// NADSYN1 (11734609_at) / RFU RASL12 (11751679_a_at) / Fold change /veh RASL12 (11751679_a_at) / RFU CDKN2B (11736163_a_at) / Fold change /veh CDKN2B (11736163_a_at) / RFU PRF1 (11729649_at) / Fold change /veh PRF1 (11729649_at) / RFU, ZNF638 /// ZNF638-IT1 / Fold change vs veh, ZNF638 /// ZNF638-IT1 / RFU, PANK3 / Fold change vs veh, PANK3 / RFU, SH3YL1 / Fold change vs veh, SH3YL1 / RFU, ZEB2 / Fold change vs veh, ZEB2 / RFU, NRIP1 / Fold change vs veh, NRIP1 / RFU, PTTG1IP / Fold change vs veh, PTTG1IP / RFU, CAPN2 / Fold change vs veh, CAPN2 / RFU, MED14 / Fold change vs veh, MED14 / RFU, SNORA58 / Fold change vs veh, SNORA58 / RFU, C1orf63 / Fold change vs veh, C1orf63 / RFU, LRRFIP1 / Fold change vs veh, LRRFIP1 / RFU, NDUFAF7 / Fold change vs veh, NDUFAF7 / RFU, SLC12A2 / Fold change vs veh, SLC12A2 / RFU, IBTK / Fold change vs veh, IBTK / RFU, ESF1 / Fold change vs veh, ESF1 / Fold change vs veh, TMEM50B / RFU, TAOK1 / Fold change vs veh, TAOK1 / RFU, ACBD3 / Fold change vs veh, ACBD3 / RFU, TMA16 / Fold change vs veh, TMA16 / RFU, RWDD3 / Fold change vs veh, RWDD3 / RFU, BCAT1 / Fold change vs veh, BCAT1 / RFU, EDEM3 / Fold change vs veh, EDEM3 / RFU, TMEM33 / Fold change vs veh, TMEM33 / RFU, WDR75 / Fold change vs veh, WDR75 / RFU, AHCTF1 / Fold change vs veh, AHCTF1 / RFU, TFRC / Fold change vs veh, TFRC / RFU, ZDHHC17 / Fold change vs veh, ZDHHC17 / RFU, NOM1 / Fold change vs veh, NOM1 / RFU, ARL8B / Fold change vs veh, ARL8B / RFU, ZBTB11 / Fold change vs veh, ZBTB11 / RFU, TAMM41 / Fold change vs veh, TAMM41 / RFU, KIAA1704 /// LOC100996395 / Fold change vs veh, KIAA1704 /// LOC100996395 / RFU, ING1 / Fold change vs veh, ING1 / RFU, TRMT61B / Fold change vs veh, TRMT61B / RFU, FUBP3 / Fold change vs veh, FUBP3 / RFU, TP53 / Fold change vs veh, TP53 / RFU, TNKS2 / Fold change vs veh, TNKS2 / RFU, ZFP14 / Fold change vs veh, ZFP14 / RFU, ACTR2 / Fold change vs veh, ACTR2 / RFU, PPP3R1 / Fold change vs veh, PPP3R1 / RFU, PIK3R1 / Fold change vs veh, PIK3R1 / RFU, HNRNPA1 / Fold change vs veh, HNRNPA1 / RFU, RNF170 / Fold change vs veh, RNF170 / RFU, ZNF28 / Fold change vs veh, ZNF28 / RFU, RNGTT / Fold change vs veh, RNGTT / RFU, OGT / Fold change vs veh, OGT / RFU, BRD1 / Fold change vs veh, BRD1 / RFU, MARS / Fold change vs veh, MARS / RFU, ZNF655 / Fold change vs veh, ZNF655 / RFU, FAHD1 / Fold change vs veh, FAHD1 / RFU, BDP1 / Fold change vs veh, BDP1 / RFU, LRRCC1 / Fold change vs veh, LRRCC1 / RFU, ARID1A / Fold change vs veh, ARID1A / RFU, ZNF146 / Fold change vs veh, ZNF146 / RFU, ZNF330 / Fold change vs veh, ZNF330 / RFU, GPN3 / Fold change vs veh, GPN3 / RFU, C9orf123 / Fold change vs veh, C9orf123 / RFU, N4BP2L2 / Fold change vs veh, N4BP2L2 / RFU, ARFIP1 / Fold change vs veh, ARFIP1 / RFU, FAM179B / Fold change vs veh, FAM179B / RFU, BCL10 / Fold change vs veh, BCL10 / RFU, UHRF1BP1L / Fold change vs veh, UHRF1BP1L / RFU, BET1 / Fold change vs veh, BET1 / RFU, CNOT2 / Fold change vs veh, CNOT2 / RFU, ZNF268 / Fold change vs veh, ZNF268 / Fold change vs veh, ZNF507 / RFU, DGCR2 / Fold change vs veh, DGCR2 / RFU, WDSUB1 / Fold change vs veh, WDSUB1 / Fold change vs veh, HSP90B1 /// MIR3652 / RFU, ADSS / Fold change vs veh, ADSS / RFU, GK / Fold change vs veh, GK / RFU, ZNF148 / Fold change vs veh, ZNF148 / RFU, TAF9 / Fold change vs veh, TAF9 / RFU, SLC1A5 / Fold change vs veh, SLC1A5 / RFU, SLMO2 / Fold change vs veh, SLMO2 / RFU, ABCC4 / Fold change vs veh, ABCC4 / RFU, LOC101060439 /// RAP1B / Fold change vs veh, LOC101060439 /// RAP1B / RFU, RFX7 / Fold change vs veh, RFX7 / RFU, GTPBP10 / Fold change vs veh, GTPBP10 / RFU, CNEP1R1 / Fold change vs veh, CNEP1R1 / RFU, BIVM-ERCC5 /// ERCC5 / Fold change vs veh, BIVM-ERCC5 /// ERCC5 / RFU, ILF3 / Fold change vs veh, ILF3 / RFU 11762660_at / Fold change /veh 11762660_at / RFU VCAN (11757783_s_at) / Fold change /veh VCAN (11757783_s_at) / RFU DDX43 (11728927_at) / Fold change /veh DDX43 (11728927_at) / RFU KRT8 (11758188_x_at) / Fold change /veh KRT8 (11758188_x_at) / RFU NKD1 (11759106_at) / Fold change /veh NKD1 (11759106_at) / RFU SRD5A1 (11742802_a_at) / Fold change /veh SRD5A1 (11742802_a_at) / RFU TPSAB1 /// TPSB2 (11721975_s_at) / Fold change /veh TPSAB1 /// TPSB2 (11721975_s_at) / RFU GSTM3 (11746129_a_at) / Fold change /veh GSTM3 (11746129_a_at) / RFU IL23R (11737362_x_at) / Fold change /veh IL23R (11737362_x_at) / RFU TMEM51 (11727254_a_at) / Fold change /veh TMEM51 (11727254_a_at) / RFU PIWIL2 (11732686_x_at) / Fold change /veh PIWIL2 (11732686_x_at) / RFU ORM1 (11744905_x_at) / Fold change /veh ORM1 (11744905_x_at) / RFU CCDC152 (11743942_at) / Fold change /veh CCDC152 (11743942_at) / RFU ECM1 (11717891_a_at) / Fold change /veh ECM1 (11717891_a_at) / RFU IL23R (11748794_a_at) / Fold change /veh IL23R (11748794_a_at) / RFU TNFAIP8L3 (11732012_x_at) / Fold change /veh TNFAIP8L3 (11732012_x_at) / RFU MBOAT4 (11741988_at) / Fold change /veh MBOAT4 (11741988_at) / RFU 11764193_at / Fold change /veh 11764193_at / RFU TMEM53 (11763286_at) / Fold change /veh TMEM53 (11763286_at) / RFU MAGEB2 (11727129_at) / Fold change /veh MAGEB2 (11727129_at) / RFU TMEM200A (11744735_a_at) / Fold change /veh TMEM200A (11744735_a_at) / RFU CCDC152 (11751479_a_at) / Fold change /veh CCDC152 (11751479_a_at) / RFU FAM211A (11726209_a_at) / Fold change /veh FAM211A (11726209_a_at) / RFU RGS16 (11746705_a_at) / Fold change /veh RGS16 (11746705_a_at) / RFU VCAN (11755009_s_at) / Fold change /veh VCAN (11755009_s_at) / RFU RHOB (11743442_s_at) / Fold change /veh RHOB (11743442_s_at) / RFU RGS16 (11720943_a_at) / Fold change /veh RGS16 (11720943_a_at) / RFU RGS16 (11720944_at) / Fold change /veh RGS16 (11720944_at) / RFU, VPS4B / Fold change vs veh, VPS4B / RFU, CREB1 / Fold change vs veh, CREB1 / RFU, DNAJC13 / Fold change vs veh, DNAJC13 / RFU, GNAQ / Fold change vs veh, GNAQ / RFU, CDK5R1 / Fold change vs veh, CDK5R1 / RFU, ZRANB3 / Fold change vs veh, ZRANB3 / RFU, CUL4A / Fold change vs veh, CUL4A / RFU, CCNY / Fold change vs veh, CCNY / RFU, UFL1 / Fold change vs veh, UFL1 / RFU, COG3 / Fold change vs veh, COG3 / RFU, DIAPH2 / Fold change vs veh, DIAPH2 / RFU, SKA2 / Fold change vs veh, SKA2 / RFU, AFF3 / Fold change vs veh, AFF3 / RFU, LMF1 / Fold change vs veh, LMF1 / RFU, IPO11 / Fold change vs veh, IPO11 / RFU, DFFB / Fold change vs veh, DFFB / RFU, FOXP1 / Fold change vs veh, FOXP1 / RFU, CARD8 / Fold change vs veh, CARD8 / RFU, STRN3 / Fold change vs veh, STRN3 / RFU, ADK / Fold change vs veh, ADK / RFU, RASSF2 / Fold change vs veh, RASSF2 / RFU, WIPF1 / Fold change vs veh, WIPF1 / RFU, LARP1B / Fold change vs veh, LARP1B / RFU, RASA1 / Fold change vs veh, RASA1 / RFU, RB1 / Fold change vs veh, RB1 / RFU, PPFIA1 / Fold change vs veh, PPFIA1 / RFU, MAT2A / Fold change vs veh, MAT2A / RFU, CCT5 / Fold change vs veh, CCT5 / RFU, WDR92 / Fold change vs veh, WDR92 / RFU, CUX1 / Fold change vs veh, CUX1 / RFU, TTC7A / Fold change vs veh, TTC7A / RFU, TMEM135 / Fold change vs veh, TMEM135 / RFU, DEPTOR / Fold change vs veh, DEPTOR / RFU, CPM / Fold change vs veh, CPM / RFU, DNAJB6 / Fold change vs veh, DNAJB6 / RFU, CACNA2D3 / Fold change vs veh, CACNA2D3 / RFU, DTX4 / Fold change vs veh, DTX4 / RFU, TFCP2 / Fold change vs veh, TFCP2 / RFU, GMCL1 /// GMCL1P1 / Fold change vs veh, GMCL1 /// GMCL1P1 / RFU, AEBP2 / Fold change vs veh, AEBP2 / RFU, SNHG1 /// SNORD22 /// SNORD25 /// SNORD26 /// SNORD27 /// SNORD28 /// SNORD29 /// SNORD31 / Fold change vs veh, SNHG1 /// SNORD22 /// SNORD25 /// SNORD26 /// SNORD27 /// SNORD28 /// SNORD29 /// SNORD31 / Fold change (Aza/veh), C12orf56 (ProbeSet 11735607_a_at) / Fold change (ACY-1035/veh), C12orf56 (ProbeSet 11735607_a_at) / Fold change (Aza/veh), FGFR1OP (ProbeSet 11751329_s_at) / Fold change (ACY-1035/veh), FGFR1OP (ProbeSet 11751329_s_at) / Fold change (Aza/veh), VPS36 (ProbeSet 11739960_a_at) / Fold change (ACY-1035/veh), VPS36 (ProbeSet 11739960_a_at) / RFU SYPL1 (11715823_x_at) / Fold change /veh SYPL1 (11715823_x_at) / RFU IGFBP7 (11715501_s_at) / Fold change /veh IGFBP7 (11715501_s_at) / RFU REEP3 (11722064_at) / Fold change /veh REEP3 (11722064_at) / RFU IGLL1 (11728026_x_at) / Fold change /veh IGLL1 (11728026_x_at): dose or concentration left out as unconfirmed
Details: ProbeSet 11732165_x_at; LIST D

Nc1ccc(-c2cccs2)cc1NC(=O)c1ccc2c(c1)cc(C1CC1)n2CCN1CCOCC1 [ACY-1035]
RFU, LMF1: 59.92 RFU
